In ChEMBL document CHEMBL4680194, “Synthesis and biological evaluation of 1,2,4-triazole derivatives as potential neuroprotectant against ischemic brain injury” (Eur J Med Chem, 2020):
Active and inactive are the calls of the source. The rule behind the calls is not given here.

Assays:
[1] = Metal chelating activity of the compound assessed as Fe2+-compound complex formation incubated for 10 mins in presence of ferrozine by UV-visible spectrophotometry; conditions: read-out: IC50
[2] = molecular target: T1, Nuclear factor erythroid 2-related factor 2 (Rattus norvegicus) (UniProt O54968); experiment: Induction of Nrf2 nuclear translocation in rat PC-12 cells assessed as H2O2-induced SOD level at 5 uM incubated for 1 hr followed by H2O2 stimulation and measured after 5 hrs (reference value: 29.69 +/- 1.65 U/mg); format: cell-based; conditions: time 6.0 hrs
T1 sequence (whole entry): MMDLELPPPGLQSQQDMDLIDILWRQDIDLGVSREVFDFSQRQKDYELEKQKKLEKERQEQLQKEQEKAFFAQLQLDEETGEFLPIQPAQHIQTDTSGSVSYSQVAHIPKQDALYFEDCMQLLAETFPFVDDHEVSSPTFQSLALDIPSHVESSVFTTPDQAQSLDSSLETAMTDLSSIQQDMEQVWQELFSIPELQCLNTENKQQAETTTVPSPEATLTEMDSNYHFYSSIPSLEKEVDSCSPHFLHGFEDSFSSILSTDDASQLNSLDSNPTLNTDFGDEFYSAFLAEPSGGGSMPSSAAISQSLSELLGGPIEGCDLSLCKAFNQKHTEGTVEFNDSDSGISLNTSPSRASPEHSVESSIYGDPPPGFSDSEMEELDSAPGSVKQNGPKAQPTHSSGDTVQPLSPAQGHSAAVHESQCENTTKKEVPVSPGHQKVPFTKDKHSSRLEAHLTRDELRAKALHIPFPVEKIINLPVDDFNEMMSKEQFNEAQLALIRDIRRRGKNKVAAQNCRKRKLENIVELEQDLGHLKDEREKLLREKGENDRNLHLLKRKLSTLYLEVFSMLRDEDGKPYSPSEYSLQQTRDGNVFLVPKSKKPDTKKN

[3] = AUC (0 to infinity) in Sprague-Dawley rat at 20 mg/kg, po measured upto 24 hrs by LC-MS/MS analysis; format: ADME, organism-based; set-up: route oral, dose 20 mg/kg, time <=24; conditions: in vivo
[4] = molecular target: T1, Nuclear factor erythroid 2-related factor 2 (Rattus norvegicus); experiment: Induction of Nrf2 nuclear translocation in rat PC-12 cells assessed as SNP-induced GSH level at 5 uM incubated for 1 hr followed by SNP stimulation and measured after 24 hrs (reference value: 75.78 +/- 1.74 nM/mg); format: cell-based; conditions: time 25.0 hrs
[5] = Toxicity in […] assessed as body weight at 400 mg/kg, ip measured on day 3 (reference value: 24.4 to 28.4 g); format: organism-based; conditions: in vivo, 72 h, time 3 day
[6] = Cmax in Sprague-Dawley rat at 2 mg/kg, iv measured upto 24 hrs by LC-MS/MS analysis; format: ADME, organism-based; set-up: route intravenous, dose 2 mg/kg, time <=24; conditions: in vivo
PC-12 [7] = experiment: Cytoprotective activity against H2O2-induced cell death in rat PC-12 cells assessed as increase in cell viability at 10 uM incubated for 1 hr followed by H2O2 stimulation and measured after 5 hrs by MTT assay; format: functional; conditions: time 6 hrs
[8] = MRT in Sprague-Dawley rat at 20 mg/kg, po measured upto 24 hrs by LC-MS/MS analysis; format: ADME, organism-based; conditions: in vivo
[9] = molecular target: T1, Nuclear factor erythroid 2-related factor 2 (Rattus norvegicus); experiment: Induction of Nrf2 nuclear translocation in rat PC-12 cells assessed as SNP-induced GSH-px level at 10 uM incubated for 1 hr followed by SNP stimulation and measured after 24 hrs (reference value: 37.70 +/- 2.88 mU/mg); format: cell-based; conditions: time 25.0 hrs
[10] = Oral bioavailability in Sprague-Dawley rat at 20 mg/kg measured upto 24 hrs by LC-MS/MS analysis; format: ADME, organism-based; conditions: in vivo
PC-12 [11] = experiment: Inhibition of H2O2-induced apoptosis in rat PC-12 cells assessed as effect on cell morphology incubated for 1 hr followed by H2O2 stimulation and measured after 5 hrs by Hoechst 33258 staining based fluorescence microscopy; format: functional; conditions: dose 2.5-10 µM, time 6.0 hrs
[12] = MRT in Sprague-Dawley rat at 2 mg/kg, iv measured upto 24 hrs by LC-MS/MS analysis; format: ADME, organism-based; conditions: in vivo
[13] = molecular target: T1, Nuclear factor erythroid 2-related factor 2 (Rattus norvegicus); experiment: Induction of Nrf2 nuclear translocation in rat PC-12 cells assessed as SNP-induced SOD level at 10 uM incubated for 1 hr followed by SNP stimulation and measured after 24 hrs (reference value: 23.74 +/- 2.02 U/mg); format: cell-based; conditions: time 25.0 hrs
[14] = Toxicity in […] assessed as body weight at 400 mg/kg, ip measured on day 7 (reference value: 24.4 to 28.4 g); format: organism-based; conditions: in vivo, 168 h, time 7 day
PC-12 [15] = experiment: Inhibition of H2O2-induced apoptosis in rat PC-12 cells assessed as reduction in condensed nuclei incubated for 1 hr followed by H2O2 stimulation and measured after 5 hrs by Hoechst 33258 staining based fluorescence microscopy; format: functional, cell-based; conditions: dose 2.5-10 µM, time 6.0 hrs
[16] = molecular target: T1, Nuclear factor erythroid 2-related factor 2 (Rattus norvegicus); experiment: Induction of Nrf2 nuclear translocation in rat PC-12 cells assessed as H2O2-induced GSH-px level incubated for 1 hr followed by H2O2 stimulation and measured after 5 hrs; format: cell-based; conditions: dose 2.5-10 µM, time 6.0 hrs
[17] = molecular target: T1, Nuclear factor erythroid 2-related factor 2 (Rattus norvegicus); experiment: Induction of Nrf2 nuclear translocation in rat PC-12 cells assessed as H2O2-induced GSH-px level at 10 uM incubated for 1 hr followed by H2O2 stimulation and measured after 5 hrs (reference value: 45.92 +/- 3.64 mU/mg); format: cell-based; conditions: time 6.0 hrs
Rattus norvegicus = experiment: Neuroprotective activity in Sprague-Dawley rat model of middle cerebral artery occlusion-induced ischemic injury assessed as increase in SOD level at 3 to 30 mg/kg, ip administered TID and measured after 24 hrs by ELISA; format: functional, organism-based; conditions: dose 3-30 mg/kg
[18] = Cmax in Sprague-Dawley rat at 20 mg/kg, po measured upto 24 hrs by LC-MS/MS analysis; format: ADME, organism-based; set-up: route oral, dose 20 mg/kg, time <=24; conditions: in vivo
[19] = molecular target: T1, Nuclear factor erythroid 2-related factor 2 (Rattus norvegicus); experiment: Induction of Nrf2 nuclear translocation in rat PC-12 cells assessed as SNP-induced SOD level at 5 uM incubated for 1 hr followed by SNP stimulation and measured after 24 hrs (reference value: 23.74 +/- 2.02 U/mg); format: cell-based; conditions: time 25.0 hrs
[20] = molecular target: T1, Nuclear factor erythroid 2-related factor 2 (Rattus norvegicus); experiment: Induction of Nrf2 nuclear translocation in rat PC-12 cells assessed as H2O2-induced SOD level incubated for 1 hr followed by H2O2 stimulation and measured after 5 hrs; format: cell-based; conditions: dose 2.5-10 µM, time 6.0 hrs
[21] = Toxicity in […] assessed as organism death at 400 mg/kg, ip observed for 7 day; format: organism-based; conditions: in vivo
[22] = Clearance in Sprague-Dawley rat at 2 mg/kg, iv measured upto 24 hrs by LC-MS/MS analysis; format: ADME, organism-based; conditions: in vivo

Q: Which results are given for `COc1ccc(-c2nc(-c3ccccc3O)n(-c3ccc(S(N)(=O)=O)cc3)n2)c(O)c1`?
A: IC50 [1]: 36.3 µM; Activity [2]: 38.9 U/mg; AUC(0-inf) [3]: 14200 ng·h/mL; Activity [4]: 86.7 nM/mg; Activity [5]: 24.5 g; Cmax [6]: 2750 ng/mL; Activity (PC-12 [7]): 30%; MRT [8]: 6.32 h; Activity [9]: 52.8 mU/mg; bioavailability [10]: 60.8%; inhibition (PC-12 [11]): Dose-dependent effect; MRT [12]: 2.37 h; Activity [13]: 39.1 U/mg; Activity [14]: 25.7 g; inhibition (PC-12 [15]): Dose-dependent effect; Activity [16]: Dose-dependent effect; Activity [17]: 77.9 mU/mg; Activity (Rattus norvegicus): Active; Cmax [18]: 2030 ng/mL; Activity [19]: 34.9 U/mg; Activity [20]: Dose-dependent effect; LD50 at 168 h [21]: 400 mg/kg; clearance [22]: 15 mL/min/kg
